In US9415017B2, “Bacterial ghosts for mediating innate immunity” (priority 2010, dated 2016):

What was measured:
RAW 264.7 cells = assay: neutral red cytotoxicity assay; assay type: cell-based, murine
From the text: The neutral red assay was used to test the impact of empty or RV-loaded BGs as well as the chemical per se on the viability of RAW 264.7 cells. Neutral red (3-amino-m-dimethylamino-2methyl-phenazine hydrochloride) selectivly accumulates in lysosomes of living cells (Repetto et al. 2008. Nat Protoc, 2008. 3(7): p. 1125-31) and provides therefore a quantitative assessment of viablitity.
Individual wells of 96-well plates were inoculated with 1.25×10^5 cells and were allowed to attach overnight. Macrophages were treated with 200 μl medium containing RV-loaded and unloaded BGs (all resuspended in sf-medium) in different BG to cell ratios (10, 100, 1000) or with RV alone for either 20 min followed by a 20 hour recovery period or 24 hours. The same conditions were performed with two RV-concentrations (15 μM and 30 μM). Triton X-100 (0.01%) served as a positive control and cells treated with test medium represent the negative control. After treatment, the cells were washed twice with PBS and were incubated either with culture medium for 20 hours or directly with 100 μl of NR (80 μg/ml final concentration) for another two hours (37° C.; 5% CO2). Thereafter, the dye was discarded and the wells were washed two times with PBS. Extraction of the dye was accomplished by addition of 100 μl of the acidic destaining solution (1 ml acetic acid, 73 ml 96% ethanol and 26 ml deionized water). The plates were shaken for 10 min and the developed color was measured by a plate reader (Dynex OpsysMR) at 570 nm (reference wavelength 690 nm).

[1] = test system: NO production in RAW 264.7 cells; assay: nitrite assay (Griess reaction) for NO production; assay type: cell-based, murine; conditions: for impact on BG-induced NO-generation: NO after 20 hours
Experimental: RAW 264.7 cells were seeded in 96 well plates and were cultured for two days. […] Thereafter, the bacterial ghost suspensions were removed by twice washing with PBS and the cells were incubated for another 20 hours in the dark at 37° C. 5% CO2. In order to investigate the stimulatory impact of pure LPS (Fluka; E. coli serotype 055:B5), long-term incubation experiments with various LPS concentrations were conducted for 20 hours.
As an indicater of NO production, nitrite concentration was measured in the supernatant of the macrophages by use of the Griess reaction (Green et al., 1982 Anal Biochem. 126(1): p. 131-8). In short, 100 μl of each supernatant was mixed with 90 μl 1% sulphanilamide (Fluka) in 5% H3PO4 and 90 μl of N-(1-Naphthyl) ethylene diamine dihydrochloride in water. The absorbance was determined at 550 nm with an ELISA reader (Tecan Sunrise).

In the case of Oc1ccc(C=Cc2cc(O)cc(O)c2)cc1 [RV, resveratrol], the cell viability (RAW 264.7 cells; 15 μM RV) is reported as “no impact at all”, the cell viability (RAW 264.7 cells; 30 μM RV) is reported as 81.23 ± 10.6% and the loss of viability (RAW 264.7 cells; 30 μM RV) is reported as 20%. For the same molecule, the cell viability (RAW 264.7 cells; short-term coincubation (20 min, measured after 20 hours)) was “no effects”, the “impact on BG-induced NO-generation” value ([1]; 0.3 μM and 0.3 μM RV with empty BGs at ratio 500, 20 min) was “no impact” and the “impact on BG-induced NO-generation” value ([1]; 30 μM RV with empty BGs at ratio 500, 20 min) was “Statistically significant difference”. For the same molecule, the “reduction of nitrite compared to empty BGs alone” value ([1]; BG to cell ratio of 100, RV-loaded ghosts or 3 μM RV with empty BGs) was “no effect” and the “reduction of NO compared to empty BGs alone” value ([1]; MOI of 1000, RV-ghosts or 3 μM RV coevally with empty BGs) was “reduction”.
